Ends that are not written are not given here.
Tests used:
[1] = test system: protein levels of ACC1, FAS and ACSS2; test: Immunoblotting of MDA-MB-231-derived cells treated with mTOR inhibitor; type: cell-based, human; settings: serum-starved 24 h, 0.1 μM for 5 h; for protein levels of ACC1, FAS and ACSS2: control or S671A-expressing cells
Description: FIGS. 6A to 6H show mutation of DAXX phosphorylation sites disrupts DAXX-SREBP2 interaction, impairs lipogenesis and tumor growth. […] The GFP-wt DAXX was transfected alone in the absence of FLAG-SREBP2 as a control (lane 7). The lysates of transfected cells were subjected to IP with an anti-FLAG antibody. Both DAXX and FLAG-SREBP2 were detected in immunoprecipitates and input lysates. […] The precipitated DNAs were subjected to qPCR with primers specific to promoter regions of the indicated genes. qPCRs for the 3′ UTR of the FASN and ACACA genes serve as negative control. […] ATRX qRT-PCR serves as a control for genes not regulated by SREBPs. […] Cells were serum-starved for 24 h. DMSO or a mTOR inhibitor (0.1 μM final concentration) was added for 5 h before cell lysis. […] RNAs were isolated from cells cultured in serum-free DMEM for 24 h as in FIG. 6D.
For immunoblotting analyses of cell lysates of monolayer cultures, medium was removed from culture plates and 1× Passive Lysis buffer (Promega) was added. The plates were frozen at −80° C. overnight and then thawed at room temperature. The lysates were transferred to a centrifuge tube. To prepare tumor lysates, xenograft tumor tissues were fragmented in the presence of liquid nitrogen, approximately 50 mg of tumor fragment was homogenized in 1 mL of 1× RIPA lysis buffer on ice using a micro-homogenizer. After brief sonication at a low power output for 5 sec on ice, the lysates were cleared by centrifugation at 13,000 rpm for 15 min at 4° C. Protein contents were quantified using a Qubit protein assay kit. Protein extracts from cell culture or tumor lysates were subjected to SDS-PAGE and electro-blotting as above.

[2] = test system: MDA-MB-231 and MDA-MB-468 cells; test: Cell internalization of TAMRA-SIM2 by microscopy; type: cell-based, human; settings: TAMRA-SIM2 1 μM, 1 hour
Description: FIGS. 18A to 18I show SIM2 peptide blocks lipogenesis. […] MDA-MB-231 and MDA-MB-468 cells were exposed to TAMRA-SIM2 (1 μM) for 1 hour and visualized by microscopy. […] Fluorescence polarization assay was performed in the presence of TAMRA-SIM2 and increased concentrations of SUMO1. FIGS. 18C-18H show SIM2 blocks de novo lipogenesis in MDA-MB-231 control or DAXX OE (FIG. 18C), MDA-MB-468 (FIG. 18D), Hs578T (FIG. 18E), HCT116 (FIG. 18F), 4T1 (FIG. 18G), and CT26.CL25 (FIG. 18H). Serum-starved cells were not treated (control) or exposed to SIM2 (10 μM) and labeled with [^14C] acetate. The levels of labeled lipids were quantified. […] MDA-MB-231 control and DAXX OE cell lines were untreated (control) or treated with SIM2 (10 μM). At 24 h after treatment, RNA was isolated and subject to qRT-PCR. RNA levels were normalized against that of ACTB. The p values shown are based on t-test.

[3] = Tolerability in tumor-bearing mice (body weights); type: in vivo; settings: 25 mg/kg i.p. daily weekdays
Description: FIGS. 7A to 7E show the DAXX SIM2 peptide disrupts DAXX-SREBP interaction and suppresses tumor growth in vivo. […] The immunoprecipitates, input and supernatants were analyzed by immunoblotting. […] Mice were dosed i.p. daily weekdays for three weeks with vehicle or SIM2 (25 mg/kg). Longitudinal tumor volumes, mouse body weights, and endpoint tumor weights and images are shown. […] Protein extracts from three representative MDA-MB-231 xenograft tumors in vehicle and SIM2-treated mice were subjected to immunoblotting. HSP60 was detected as a loading control. […] Mice were dosed as in FIG. 7B. Longitudinal tumor volumes, mouse body weights, and endpoint tumor weights and tumor images are shown. […] Shown are a plot of a principal component analysis of lipid molecules detected by LC/MS, a heatmap of top lipid species, and bar graphs of relative abundance of the indicated lipid molecules. […] The p values were calculated based on Student's t-test. *: p<0.05; **: […].
For the in vivo SIM2 treatment study, MDA-MB-231 xenograft tumors were established as above and the mouse mammary tumor cell line 4T1 syngeneic tumors were established by transplanting one million cells in 100 μl of DMEM into mammary fat pads of female BALB/c mice. […] During the treatment, tumor dimensions and mouse body weights were recorded once weekly. […]

In the case of `COc1ccc(-c2ccc3c(N4CCOC[C@@H]4C)nc(N4CCOC[C@@H]4C)nc3n2)cc1CO` [AZD8055], the “protein levels of ACC1, FAS and ACSS2” value [1] is reported as “Neither of these inhibitors had obvious effects”.
For `CO[C@H]1C[C@@H]2CC[C@@H](C)[C@@](O)(O2)C(=O)C(=O)N2CCCC[C@H]2C(=O)O[C@H]([C@H](C)C[C@@H]2CC[C@@H](OC(=O)C(C)(CO)CO)[C@H](OC)C2)CC(=O)[C@H](C)/C=C(\C)[C@@H](O)[C@@H](OC)C(=O)[C@H](C)C[C@H](C)/C=C/C=C/C=C/1C` [temsirolimus], the “levels of ACC1 and FAS” value ([1]; cells expressing the S495A mutant) was “reduced levels of both ACC1 and FAS” and the “protein levels of ACC1, FAS and ACSS2” value [1] was “Neither of these inhibitors had obvious effects”.
For DPEEIIVLSDSD [SIM2, DPEEIIVLSDSD], the internalization into cells [2] was “spontaneously and rapidly internalized into cells” and the tolerability in vivo [3] was “highly tolerated in vivo”.

— patent US12090189B2, “Polypeptide inhibitor of de novo lipogenesis in cancer cells” (University of Florida Research Foundation, Inc., priority 2018, dated 2024)
